Measured values reported in patent US10526383B2, “Ghrelin splice variant for treating neuronal damage, neurodegenerative disease, parkinsons disease, alzheimers disease, and/or depression” (priority 2013, dated 2020).
Entries after “also recorded” stand apart in the source; their conditions may differ. Where a SMILES comes first, the peptide text is derived from it. Where no end group is shown, it is not given here. The star is where a group is joined. Octanoyl = CCCCCCCC(=O)*

Experiments:
[1] = tested on: C57Bl/6 mice primary cell culture; assay: Trypan blue cell viability assay, protection against H2O2-induced cell death; assay type: cell-based; conditions: for protective action against the damages produced by H2O2 in terms of cell viability: 50 μM H2O2 plus 1 μM peptide, compared to negative control (H2O2)
Experimental: The protective effects of ghrelin splice variant against induced cell death, cell viability, of C57Bl/6 mice primary cell culture, was analysed by trypan blue assay, an indirect method based on the dye exclusion of live cells with intact cell membrane.
Cells were treated with 50 μM H2O2 to induce cell damages and death. The neuroprotective effect of ghrelin splice variant was tested by treating the cells with either H2O2 plus 1 μM ghrelin splice variant, H2O2 plus 1 μM ghrelin or H2O2 plus both peptides. Controls samples were untreated cells.

growth hormone = assay: GH release after subcutaneous bolus injection (growth hormone ELISA); assay type: in vivo, mice; conditions: 20 μg subcutaneous bolus; 10 minutes after administration
Experimental: Acylated ghrelin splice variants (20 μg) or the Vehicle (1.6% mannitol) were administered by a subcutaneous bolus injection (Corresponding to 0.3 μmol/kg) to 5 mice each. Blood was sampled 10 and 20 min after injection. Serum samples were stored at −70° C. and analyzed by the RAT/MOUSE GROWTH HORMONE ELISA KIT 96-Well Plate (Cat. EZRMGH-45K) (Millipore Corporation, Billerica, Mass., USA). Results: The serum […] growth hormone concentration 10 minutes after subcutaneous administration of acylated ghrelin splice variant or the Vehicle was 2-14-fold higher in the ghrelin splice variant group in comparison to the vehicle group.

[2] = Pharmacokinetics after subcutaneous administration, plasma LC/MS/MS; assay type: in vivo, Sprague-Dawley rats; conditions: Sprague-Dawley, rat; for half-life: across dose groups; for AUC / AUC(0-inf): SC; for AUC: high dose (10 mg/kg)
Experimental: Subcutaneous administration of ghrelin splice variants was performed at three dose levels of 0.5, 2.5 and 10 mg/kg corresponding to concentrations of 0.1, 0.5 and 2 mg/ml, respectively, and at a constant volume dosage of 5 ml/kg. Intravenous injection was performed at one dose level of 0.5 mg/kg corresponding to a concentration of 0.1 mg/ml and a constant volume dosage of 5 ml/kg as well. The study comprised 9 male and 9 female Sprague-Dawley™ (SD™) rats per dose level and route of administration.
Bleeding sampling design was confined to 9 bleeding time points for each dose level: pre-dosing, 5, 15, 30, 60 and 90 min, 3, 5 and 24 hrs, post-dosing. Each group was divided into 3 sub-groups, each being assigned 3 specific bleeding time points, in order to receive 3 individual samples/time point/group (total of 27 individual samples/group). […] Whole blood samples were kept on ice from the time of blood collection until the time of centrifugation. The obtained plasma samples were flash frozen in liquid nitrogen and kept on dry ice until removal to −70° C.
Concentrations of the Test Item in plasma were determined by LC/MS/MS (liquid chromatography/mass spectrometry/mass spectrometry). Pharmacokinetic analysis of Ghrelin Splice Variant was based on mean plasma concentration time profiles for each dose group as obtained by Non-compartmental Pharmacokinetic analysis, generated by the use of the computer software: “PK Solutions 2.0” (Summit Research Services, Colo., USA).

SNpc DA neurons [3] = assay: mEPSC recordings in GHSR1a knockout mice and their WT littermates; assay type: cell-based; conditions: 1 μM, in presence of TTX and bicuculline
MPTP-mice = assay: MPTP mouse model of Parkinson's disease; assay type: in vivo; conditions: 10 nmol once-a-day, day -7 to day 10 after MPTP
Experimental: In the MPTP model, the bilateral dopaminergic neuronal death of the substantia nigra and dopamine depletion of the striatum is created by i.p. injection of MPTP. Experimental groups:
• Group 1: 10 Sham-mice treated with vehicle (10 ml/kg) once-a-day starting day-7 and continuing until the end of the study day 10 • Group 2: 10 MPTP-mice treated with vehicle (10 ml/kg) once-a-day starting day-7 and continuing until the end of the study day 10 • Group 3: 10 MPTP-mice treated with Ghrelin SplicVariant (10 nmol) once-a-day starting day-7 and continuing until the end of the study day 10 Ghrelin Splice Variant or vehicle was administered once-a-day immediately before the dark phase, and […] were removed overnight starting seven days prior to MPTP challenge and continued until end-point day 10 after MPTP. Striatal levels of dopamine (DA), […] (DOPAC) and homovanillic acid (HVA) are evaluated 10 days after the injection of MPTP with HPLC. In addition, the selective damage to dopaminergic neurons in the SNc is evaluated with tyrosine hydroxylase (TH) immunoreactivity. Food intake and body weight were monitored daily in all mice administered Ghrelin Splice Variant.

SNpc DA neurons [4] = assay: Patch clamp (whole-cell current clamp) recordings of action potentials in brain slices, bath application; assay type: cell-based, mice; conditions: 1 μM
Experimental: Brain slices preparation: Brain slices (300 µm) containing the SN, will be cut on a vibratome from 4-6 week old males (n=10 per group). Briefly, animals will be anesthetized with Nembutal (80 mg/kg) and then decapitated. The brains will be rapidly removed and immersed in cold […] oxygenated bath solution (containing (mM): NaCl 150, KCl 2.5, CaCl2 2, MgCl2 2 Hepes 10, and glucose […] with NaOH). After being trimmed to contain only the SN, slices will be transferred to a recording chamber where they are constantly perfused with bath solution at 2 ml/min. DA neurons in the SN are identified by presence of a large Ih current (>100 pA) evoked by hyperpolarizing voltage steps from −50 to −120 mV for 2 s (22). This approach identifies dopaminergic cells with >90% accuracy. In brain slices, whole-cell current clamp will be used to observe spontaneous action potentials. Slices will be maintained at 330 C and perfused continuously with ASCF (bubbled with 5% CO2 and 95% O2) containing (in mM): NaCl, 124; KCl, 3; CaCl2, 2; MgCl2, 2; NaH2PO4, 1.23; NaHCO3, 26; glucose, 10; pH 7.4 with NaOH. Ghrelin Splice Variant will be applied to the recording chamber via bath application.The pipette solution containes (mM): Gluconic Acid 140, CaCl2, MgCl2 2, EGTA 1, HEPES 10, Mg-ATP 4, and Na2-GTP 0.5, pH 7.3 with KOH. To further explore the mechanism of Ghrelin Splice Variant-mediated effect on action potentials in DA neurons, we will analyze the effect of Ghrelin Splice Variant on action potential frequency either in the presence of ionotropic glutamate receptor antagonists CNQX (10 µM) and APS (50 µM) in all solutions, or in the presence of bicuculine (30 µM; to block diminish GABA effects) in all solutions. Analysis: All data will be sampled at 3-10 kHz and […] at 1-3 kHz with an Apple Macintosh computer using Axograph 4.9 (Axon Instruments). Electrophysiological data will be analyzed with Axograph 4.9 (Axon Instruments) and plotted with Igor Pro software (WaveMetrics, Lake Oswego, Oreg., USA). To complement, the electron microscopic measurements of synapses, we will also analyze mEPSC and mIPSC of SN DA neurons. Mice (C57BL/J6; n=10) between the ages of 4-6 weeks of age will be injected with Ghrelin Splice Variant (30 μg in 0.3 ml) or vehicle ip at 09:00 hrs. Two hours later, animals will be sacrificed under neinbutal anesthesia and their brains collected as described above. For the recording of mEPSCs and IPSCs, SN DA cells will be patched with pipettes with a tip resistance of 4-6 MΩ and partially compensated by the amplifier. The pipette will be filled with a solution containing the following (mM): KMeSO, 145 (mEPSC) or KCL, 145 (mIPSC); MgCl2, 2; HEPES, 10; Mg-ATP, 2.; Nat-GTP, 0.3; and KOH to adjust pH to 7.3. mEPSC recordings will be achieved under the prescence of TTX and bicucullin, whereas mIPSC will be monitored under the presence of TTX, AP5 and CNQX. The frequency and amplitude of mEPSC and IPSC will be recorded as described previously. Differences in the frequency of mEPSCs and mIPSCs of DA cells from Ghrelin Splice Variant and saline treated animals will be compared using unpaired t-tests with the critical level set at α=0.05). […] N=number of cells recorded.

SN DA neurons = assay: mEPSC and mIPSC recordings of SN DA neurons after treatment of WT mice; assay type: in vivo; conditions: compared with saline control, n=6 cells
Experimental: Brain slices preparation: Brain slices (300 µm) containing the SN, will be cut on a vibratome from 4-6 week old males (n=10 per group). Briefly, animals will be anesthetized with Nembutal (80 mg/kg) and then decapitated. The brains will be rapidly removed and immersed in cold […] oxygenated bath solution (containing (mM): NaCl 150, KCl 2.5, CaCl2 2, MgCl2 2 Hepes 10, and glucose […] with NaOH). After being trimmed to contain only the SN, slices will be transferred to a recording chamber where they are constantly perfused with bath solution at 2 ml/min. DA neurons in the SN are identified by presence of a large Ih current (>100 pA) evoked by hyperpolarizing voltage steps from −50 to −120 mV for 2 s (22). This approach identifies dopaminergic cells with >90% accuracy. […] Electrophysiological data will be analyzed with Axograph 4.9 (Axon Instruments) and plotted with Igor Pro software (WaveMetrics, Lake Oswego, Oreg., USA). […] The pipette will be filled with a solution containing the following (mM): KMeSO, 145 (mEPSC) or KCL, 145 (mIPSC); MgCl2, 2; HEPES, 10; Mg-ATP, 2.; Nat-GTP, 0.3; and KOH to adjust pH to 7.3. mEPSC recordings will be achieved under the prescence of TTX and bicucullin, whereas mIPSC will be monitored under the presence of TTX, AP5 and CNQX. The frequency and amplitude of mEPSC and IPSC will be recorded as described previously. […] N=number of cells recorded.

[5] = cited from earlier work
[6] = listed as Ghrelin splice variant

CCCCCCCC(=O)OC[C@H](NC(=O)[C@H](CO)NC(=O)CN)C(=O)N[C@@H](Cc1ccccc1)C(=O)N[C@@H](CC(C)C)C(=O)N[C@@H](CO)C(=O)N1CCC[C@H]1C(=O)N[C@@H](CCC(=O)O)C(=O)N[C@@H](Cc1c[nH]cn1)C(=O)N[C@@H](CCC(N)=O)C(=O)N[C@@H](CCCNC(=N)N)C(=O)N[C@H](C(=O)N[C@@H](CCC(N)=O)C(=O)N[C@H](C(=O)N[C@@H](CCCNC(=N)N)C(=O)N1CCC[C@H]1C(=O)N1CCC[C@H]1C(=O)N[C@@H](Cc1c[nH]cn1)C(=O)N[C@@H](CCCCN)C(=O)N[C@@H](C)C(=O)N1CCC[C@H]1C(=O)N[C@@H](Cc1c[nH]cn1)C(=O)O)C(C)C)C(C)C [Ghrelin Splice Variant] (H-GSS(Octanoyl)FLSPEHQRVQVRPPHKAPH-OH)
protective action against the damages produced by H2O2 in terms of cell viability [1, 6]: effective protective action | protective action against the damages produced by H2O2 in terms of cell viability ([1]; listed as ghrelin splice variant): statistically significant effective protective action; also recorded: greater than ghrelin treatment | serum and brain growth hormone concentration in comparison to the vehicle group (growth hormone): 2-14 fold | half-life ([2]; subcutaneous, female rats): 10.7 to 28.9 min | half-life ([2]; subcutaneous, male rats): 17.4 to 26.4 min | Tmax ([2]; both sexes, subcutaneous, post-dosing, all dose groups): 5 min | AUC ([2]; female, females): 818 ng·h/mL | AUC(0-inf) ([2]; female, low dose (0.5 mg/kg), females): 86.7 ng·h/mL | AUC(0-inf) ([2]; female, mid dose (2.5 mg/kg), females): 347 ng·h/mL | AUC ([2]; male, males): 1320 ng·h/mL | AUC(0-inf) ([2]; male, low dose (0.5 mg/kg), males): 102 ng·h/mL | AUC(0-inf) ([2]; male, mid dose (2.5 mg/kg), males): 313 ng·h/mL | mEPSC frequency (SNpc DA neurons [3]; GHSR1a knockout mice, n=9 cells): 27.3+/−2.8 per min | mEPSC frequency (SNpc DA neurons [3]; WT animals, n=31 cells): 98.1+/−24.7 per min | MPTP-induced nigrostriatal DA damage (loss of DA neurons) (MPTP-mice): attenuates MPTP-induced nigrostriatal PA damage | cumulative weight gain / recovery after MPTP treatment (MPTP-mice): managed to recover after the MPTP treatment | action potential firing (SNpc DA neurons [4]): increment in AP firing | depolarization (SNpc DA neurons [4]): about 10 mV | duration of effect after washout (SNpc DA neurons [4]): 20 min | action potential firing (SNpc DA neurons [4]; [6]): increment in action potential firing | duration of effect after washout (SNpc DA neurons [4]; [6]): at least 20 minutes | frequency of mEPSCs (SN DA neurons): 67.2 ± 3.1 | frequency of mIPSCs (SN DA neurons): 60.5 ± 8.9

Ghrelin: 28 amino acid peptide bearing an n-octanoyl side chain on the third serine (GSS(Octanoyl)FLSPEHQRVQQRKESKKPPAKLQPR; UniProt Q9UBU3 24-51, looked up) [reference compound]
protective action against the damages produced by H2O2 in terms of cell viability [1]: statistically significant | protective action against the damages produced by H2O2 in terms of cell viability ([1]; listed as ghrelin): statistically significant effective protective action | increase of food intake ([5]; infusion for 90 minutes, cancer cachexia patients): 30% | increase of energy intake ([5]; subcutaneous injection of 3.6 nmol/kg prior to a meal): 27%

OO [H2O2, reference compound]
cell survival ([1]; 50 μM H2O2 alone): 50%
